Experimental data: paper PMC2254445, “Statistical learning of peptide retention behavior in chromatographic separations: a new kernel-based approach for computational proteomics” (BMC Bioinformatics, 2007)

Assay: Peptide retention time in capillary IP-RP-HPLC with ESI-MS detection
Assay type: physicochemical
Settings: vds1 (verified peptides, tryptic digest of protein mixture 1), 50 × 0.2 mm monolithic poly-(styrene/divinylbenzene) column, gradient 0–40% acetonitrile in 0.05% (v/v) aqueous trifluoroacetic acid in 60 min, 55°C, 2 μl/min; for observed retention time: in s (unit assumed); for normalized retention time (NRT): retention times scaled linearly so that TCVADESHAGCEK = 0.1 and MPCTEDYLSLILNR = 0.9
Source text: The datasets for training and evaluation of the retention time predictor had to fulfill two basic requirements. First, the identity of the studied peptides had to be known with high certainty in order to avoid incorrect sequence annotations for the training dataset, and second, retention times had to be measured with high reproducibility. Altogether, we measured 19 different proteins, which were purchased from Sigma (St. Louis, MO) or Fluka (Buchs, Switzerland). To avoid excessive overlapping of peptides in the chromatographic separations, the proteins were divided into three artificial protein mixtures and subsequently digested using trypsin (Promega, Madison, WI) using published protocols. The protein mixtures contained the following proteins in concentrations between 0.4 – 3.2 pmol/μl:
Mixture 1: β-casein (bovine milk), conalbumin (chicken egg white), myelin basic protein (bovine), hemoglobin (human), leptin (human), creatine phosphokinase (rabbit muscle), α1-acid-glycoprotein (human plasma), albumin (bovine serum). […]
Adding albumin to each protein mixture was performed because in each run, there had to be an identical set of peptides to normalize the retention times. The resulting peptide mixtures were then separated using capillary IP-RP-HPLC and subsequently identified by electrospray ionization mass spectrometry (ESI-MS) as described in detail in [37, 38]. The separations were carried out in a capillary/nano HPLC system (Model Ultimate 3000, Dionex Benelux, Amsterdam, The Netherlands) using a 50 × 0.2 mm monolithic poly-(styrene/divinylbenzene) column (Dionex Benelux) and a gradient of 0–40% acetonitrile in 0.05% (v/v) aqueous trifluoroacetic acid in 60 min at 55°C. The injection volume was 1 μl, and each digest was analyzed in triplicate at a flow rate of 2 μl/min. On-line ESI-MS detection was carried out with a quadrupole ion-trap mass spectrometer (Model esquire HCT, Bruker Daltonics, Bremen, Germany).
Peptides were identified on the basis of their tandem mass spectra (maximum allowed mass deviations: precursor ions: ± 1.3 Da, fragment ions: ± 0.3 Da) using Mascot (version 2.1.03). The database was the Mass Spectrometry Database, MSDB (version 2005-02-27) restricted to chordata (vertebrates and relatives). We allowed one missed cleavage as well as charges 1+, 2+ and 3+. The mass values were monoisotopic. The significance level of the significance threshold score for the peptide hits was 0.05. Since the amino acid sequences of the 19 proteins of our mixtures are known, we could verify the identifications by sequence comparison with the protein sequences. To avoid random verifications, we restricted the peptide length to be equal or greater than six. The whole process led to two datasets for each protein mixture – one which only contained the verified peptides and the other one with all Mascot identifications. In this paper, we call the datasets containing the verified peptide sequences vds and the datasets with all Mascot identifications ds. The vdss are used to train the predictors and the dss are used to access the classification performance of the identification process.
We chose two standard peptides which were identified in all of the runs. One of these peptides, which had the amino acid sequence TCVADESHAGCEK, eluted very early and the other one, which had the amino acid sequence MPCTEDYLSLILNR, eluted very late. We scaled the retention times linearly so that the early eluting peptide got an NRT of 0.1 and the late eluting peptide an NRT of 0.9. All peptides with an NRT below zero or above 1 were removed. The lists of identified peptides of vds1, vds2 and vds3, together with their respective retention times, are available as Additional files 1, 2 and 3 in the supplementary material.

| Substance | observed retention time | normalized retention time (NRT) |
| --- | --- | --- |
| TGTCNFDEYFSEGCAPGSPPNSR [verified tryptic peptide, vds1] | 1370 | 0.6845 |
| KSCHTAVGR [verified tryptic peptide, vds1] | 59 | 0.05729 |
| LRCASIQK [verified tryptic peptide, vds1] | 221 | 0.1348 |
| WSVVSNGDVECTVVDETK [verified tryptic peptide, vds1] | 1250 | 0.6268 |
| YICDNQDTISSK [verified tryptic peptide, vds1] | 404 | 0.2223 |
| DDPHACYSTVFDKLK [verified tryptic peptide, vds1] | 1174 | 0.5908 |
| ECCDKPLLEK [verified tryptic peptide, vds1] | 459 | 0.2486 |
| WCTISSPEEK [verified tryptic peptide, vds1] | 697 | 0.3623 |
| DEYELLCLDGSR [verified tryptic peptide, vds1] | 1144 | 0.5761 |
| DVCKNYQEAK [verified tryptic peptide, vds1] | 119 | 0.08607 |
| NAPYSGYSGAFHCLK [verified tryptic peptide, vds1] | 1104 | 0.5571 |
| TCVADESHAGCEK [early eluting standard peptide identified in all runs; verified tryptic peptide, vds1] | 148 |  |
| MPCTEDYLSLILNR [late eluting standard peptide identified in all runs; verified tryptic peptide, vds1] | 1821 |  |
| VGGHAAEYGAEALER [verified tryptic peptide, vds1] | 643 | 0.3365 |
| NLQMDDFELLCTDGRR [verified tryptic peptide, vds1] | 1522 | 0.7573 |
| GTFAALSELHCDK [verified tryptic peptide, vds1] | 1028 | 0.5207 |
| TCNPSDILQMCSFLEGK [verified tryptic peptide, vds1] | 1877 | 0.9271 |
| NECFLSHKDDSPDLPK [verified tryptic peptide, vds1] | 944 | 0.4804 |
| GACLLPK [verified tryptic peptide, vds1] | 453 | 0.2458 |
| EQLGEFYEALDCLR [verified tryptic peptide, vds1] | 1723 | 0.8534 |
| CLDGSR [verified tryptic peptide, vds1] | 169 | 0.1101 |
| SHCIAEVEK [verified tryptic peptide, vds1] | 238 | 0.1429 |

| Substance | observed retention time | normalized retention time (NRT) |
| --- | --- | --- |
| LKPDPNTLCDEFK [verified tryptic peptide, vds1] | 1112 | 0.5611 |
| ECCHGDLLECADDR [verified tryptic peptide, vds1] | 700 | 0.364 |
| FFSASCVPGATIEQK [verified tryptic peptide, vds1] | 1189 | 0.5977 |
| CCTESLVNR [verified tryptic peptide, vds1] | 360 | 0.2011 |
| GYTLPPHCSR [verified tryptic peptide, vds1] | 543 | 0.2886 |
| RPCFSALTPDETYVPK [verified tryptic peptide, vds1] | 1337 | 0.6687 |
| IQWCAVGK [verified tryptic peptide, vds1] | 727 | 0.3767 |
| LCQLCQGSGGIPPEK [verified tryptic peptide, vds1] | 855 | 0.4382 |
| DKCEPLEK [verified tryptic peptide, vds1] | 129 | 0.09093 |
| NLQMDDFELLCTDGR [verified tryptic peptide, vds1] | 1581 | 0.7853 |
| EYEATLEECCAK [verified tryptic peptide, vds1] | 628 | 0.3297 |
| ECNLAEVPTHAVVVRPEK [verified tryptic peptide, vds1] | 1126 | 0.5677 |
| GTFAALSELHCDKLHVDPENFK [verified tryptic peptide, vds1] | 1645 | 0.8158 |
| TSCHTGLGR [verified tryptic peptide, vds1] | 76 | 0.06527 |
| DDPHACYSTVFDK [verified tryptic peptide, vds1] | 809 | 0.4159 |
| EQLGEFYEALDCLRIPK [verified tryptic peptide, vds1] | 1949 | 0.9614 |
| YNGVFQECCQAEDK [verified tryptic peptide, vds1] | 775 | 0.3998 |
| CCTKPESER [verified tryptic peptide, vds1] | 47 | 0.05163 |
| LFTFHADICTLPDTEK [verified tryptic peptide, vds1] | 1608 | 0.7983 |
| ETYGDMADCCEK [verified tryptic peptide, vds1] | 490 | 0.2635 |
| SLHTLFGDELCK [verified tryptic peptide, vds1] | 1196 | 0.6014 |
